{"source": "patent US10265327B2", "about": "“V1A antagonists to treat phase shift sleep disorders” (Hoffmann-La Roche Inc., priority 2013, dated 2019)", "biological_target": "T1, human V1a receptor (hV1a) (Homo sapiens, UniProt P37288)", "T1 construct": "expressed in transfected cells; host or cells: HEK cells, transient transfection; membrane preparation", "T1 sequence (P37288 whole entry)": "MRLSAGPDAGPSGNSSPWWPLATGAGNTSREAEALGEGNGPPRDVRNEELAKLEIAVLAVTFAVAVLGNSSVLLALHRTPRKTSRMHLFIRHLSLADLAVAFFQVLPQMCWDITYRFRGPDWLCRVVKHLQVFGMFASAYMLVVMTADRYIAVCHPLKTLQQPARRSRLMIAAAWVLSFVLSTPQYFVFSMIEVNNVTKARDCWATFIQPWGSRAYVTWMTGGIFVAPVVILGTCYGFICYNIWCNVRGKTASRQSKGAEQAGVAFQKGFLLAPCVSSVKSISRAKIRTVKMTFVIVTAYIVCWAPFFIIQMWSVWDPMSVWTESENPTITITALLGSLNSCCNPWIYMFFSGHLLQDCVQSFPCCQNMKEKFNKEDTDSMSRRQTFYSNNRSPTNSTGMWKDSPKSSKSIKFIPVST", "assay": "Radioligand binding assay (3H-AVP, SPA), human V1a", "settings": "1 nM 3H-AVP", "protocol": "The test compound was initially dissolved in DMSO at a concentration of 10 mM. Subsequent dilutions were made in assay buffer with a maximum final concentration of 0.2% DMSO.\nRecombinant vasopressin V1a (human: hV1a; mouse: mV1a), V1b (human: hV1b) were independently expressed in human embryonic kidney (HEK) cells using transient transfection. The cell membranes expressing the various receptors were prepared by homogenizing (using Polytron homogenizer) the cell culture pellet in lysis buffer (50 mM HEPES, 1 mM EDTA, 10 mM MgCl2, pH 7.4 with protease inhibitors), then centrifuging the resulting suspension at 500 g for 20 min at 4° C. The supernatant was subsequently re-centrifuged at 43,000 g for 1 hour at 4° C. […] The concentration of protein was determined, and the membranes were aliquoted and stored at −80° C. until further use.\nAll radioligand binding assays were carried out in 96-well plates in the presence of 1 nM ^3H-AVP (vasopressin) radioligand, and 10 concentrations of test compound (ranging from 27 μM-1 nM or 2.7 μM-0.1 nM for hV1a binding). […] Filtration assays were terminated by rapid filtration under vacuum through GF/C filters, presoaked for 5 min with buffer B containing Tris 50 mM, MgCl2 5 mM, 0.1% BSA (pH 7.4), followed by 5×0.4 ml washes of ice-cold buffer B. For both SPA and filtration plates, bound ligand was determined using a Packard Topcount scintillation counter. […]", "note": "Where two headings read alike, the source gives them in different places."}
{"smiles": "CN1Cc2cc(Cl)ccc2-n2c(nnc2[C@H]2CC[C@H](Oc3ccccn3)CC2)C1", "note": "[Example 1, trans-8-chloro-5-methyl-1-(4-pyridin-2-yloxycyclohexyl)-4,6-dihydro-[1,2,4]triazolo[4,3-a][1,4]benzodiazepine]", "values": [{"measurement": "Ki", "setting": "Ki ± SEM (n), read-out: Ki V1a Human", "value": "0.7 ± 0.1", "unit": "nM"}, {"measurement": "Ki", "setting": "pKi ± SEM (n), read-out: pKi V1a Human (converted)", "value": 0.776, "unit": "nM"}]}
